# According to patent US11364390B2, “Apparatus for treating pathological cells” (priority 2017, dated 2022):
# Tests used:
# Nephroblastoma G401 = assay: Tumor growth inhibition in vivo, G401 nephroblastoma model in nude mice; conditions: cisplatin 20 mg/kg three times a week, irradiation about 90 minutes a day, P<0.05, FIG. 9
# Text: Example 7: G401 nephroblastoma model was established in nude mice and the animals were randomly divided into 4 groups with 8 mice in each group. […] Tumor models were established: Male nude mice were infants aged 3-4 weeks old. Nephroblastoma G401 was inoculated into the axilla and the number was 5×10^6/volume. The volume was 200 microliters. After one week of inoculation, the tumor could be touched. The animals were randomized groups, control group, irradiation group, cisplatin group, combined groups, treated separately. […] The control animals were placed in the animals irradiated with electromagnetic field-free coils for 90 minutes every day, and injected intraperitoneally with the same volume of physiology Saline; all animals were sacrificed 3 days after the neck, the eyeball to take whole blood, EDTA anticoagulant, after centrifugation to take the biochemical indicators of blood plasma, remove underarm growth tumor, weighed tumor weight, tissue cryopreservation. Statistical analysis: Each group of 8 animals, the results were mean±standard deviation, the results of T test, P<0.05 as a significant difference in indicators.
# [1] = system: neuroblastoma cells CHLA255; assay: Cell viability assay (live cell count) on cultured neuroblastoma cells CHLA255; format: cell-based; conditions: cisplatin 500 nM once a day, combination with electromagnetic field 2 hours a day, FIG. 6
# Method: Cell Lines and Methods of Culture: Neuroblastoma cells, CHLA255, which are adherent cells, are grown in 37° C. incubator with 10% fetal calf serum in McCoy's medium containing 5% carbon dioxide and saturated water vapor. Cell viability assay: Neuroblastoma cells, CHLA255, were seeded in 6-well plates at a density of 1×10^5 cells/well. […] Statistical Analysis: Each irradiation conditions repeated three times, each three holes, the results were mean±standard error, the results do T test, with P<0.05 as a significant difference in indicators.
# [2] = system: nephroblastoma cells G401; assay: Cell viability assay (live cell count) on cultured nephroblastoma cells G401; format: cell-based; conditions: cisplatin 500 nM once a day, combination with electromagnetic field 2 hours a day, FIG. 5
# Method: Cell Lines and Methods of Culture: Nephroblastoma cells G401, adherent cells, were cultured in McCoy's medium with 10% fetal bovine serum at 37° C. in an incubator containing 5% carbon dioxide and saturated water vapor. Cell viability assay: […] cells were seeded into 6-well plates at a density of 1×10^5 cells/well. […] Statistical Analysis: Each irradiation conditions repeated three times, each three holes, the results were mean±standard error, the results do T test, with P<0.05 as a significant difference in indicators.
smiles,measurement,setting,value
N.N.[Cl][Pt][Cl] [cisplatin],tumor weight compared with the control group,Nephroblastoma G401,no significant difference
same,cell inhibition rate,[1],increase
same,cell proliferation (number of cells),[1],slow proliferation
same,cell inhibition rate,[2],increase
same,cell proliferation (number of cells),[2],slow proliferation
